Patent US20230233515A1, “PHOTODYNAMIC ANTI-GRAM-POSITIVE BACTERIAL ACTIVITY OF PHARMACEUTICAL-GRADE ROSE BENGAL” (priority 2021, published 2023)
Where “and” joins values, the source holds several entries; their conditions need not be identical. Identical values can stand only once.

Tests used:
S.cerevisiae [1] = assay: Minimal bactericidal concentration (MBC) assay
B.cepacia UCB717 = assay: Time-kill kinetic assay; conditions: fluorescent light
Procedure: (§3) Thus, the time-course experiments on these bacteria were conducted under the fluorescent light for 2 h (0-1,130 J/cm^2) at concentrations of about 2 to about 8-fold the MIC (RB). Reference molecules used were linezolid (10 µg/mL) and ciprofloxacin (10 µg/mL) for the Gram-positive bacteria and amikacin (10 µg/mL) and meropenem (10 µg/mL) for the Gram-negative bacterium.
(§4) Time-kill kinetics assay for antimicrobial agents was performed using CLSI guidelines with a minor modification. The multiple time points in time-kill kinetics assays for RB and the reference molecules were performed. The bacterial culture grown in the broth was diluted to a concentration between 1 × 10^8 and 5.0 × 10^9 CFU/mL.
(§5) A stock dilution of the antimicrobial test substance was prepared at approximately 2- to about 8-fold the MIC values. The test compounds were inoculated with equal volumes of the specified bacteria placed in a 96-well plate. The microtiter plates were incubated at 37° C. and duration (1-120 min) under the fluorescent light (conditions are summarized in the figure legend). An aliquot of the culture medium was taken from each well and a serial dilution was performed. The diluted culture was incubated at 37° C. and CFU/mL were counted.

[2] = tested on: human epidermal keratinocytes (HEKa); assay: Cytotoxicity assay with HEKa cells (stratified epithelium, H&E); conditions: fluorescent light
Procedure: In these studies, HEKa cells were differentiated to a stratified squamous epithelium via air-liquid interface; this type of epithelium can be applied as a physiological tissue to study epidermal necrolysis by the treatment of RB.
Cytotoxicity of PV-10 against Human Epidermal Keratinocytes (HEKa) were evaluated in a hanging cell culture insert in a 24-well plate. HEKa (4x10^5 cells/mL, 0.5 mL) cell suspension) was placed into the insert where the outside of the inserts was filled with EpiGRO™ Complete Culture Media (1.5 mL) [67]. The cell suspension was incubated at 37° C. overnight (about 18 hours).
The next day, without removing the original medium, an additional 0.5 mL of the medium was added to the inside of each insert and incubated at 37° C. for 2 days. High quality HEKa approached 100% confluence by the third day of submerged culture. On the 4th day, the media was gently aspirated from each insert. The skin cell cultures were maintained at the air/liquid interface.
The skin culture was incubated at 37° C. for an additional 10 days. During the 10-day incubation, the media was changed every other day and any bubbles were removed from beneath the insert membrane.
After 25 days of 3D skin culture, approximately 6 to 8 layers of live epithelium were produced. […]

S.cerevisiae [3] = assay: Growth inhibition of yeast; assay type: cell-based; conditions: Saccharomyces cerevisiae; fluorescent light; read-out: concentration giving 50% growth inhibition
Text: (§1) All studies were done in triplicate. […] “g” = MIC was not determined.
(§2) All studies were done in triplicate. […] MBC: minimum bactericidal concentrations (µg/mL).

S.aureus BAA-44 = assay: Time-kill kinetic assay; conditions: twice the RB MIC; fluorescent light
Procedure: as §3, §4, §5

a S.aureus strain = conditions: 19.5 µg/mL RB, 10 min visible light, light fluence dose 30 J/cm^2; cited from earlier work
Gram-negative bacteria = assay: MIC, broth dilution; assay type: cell-based; conditions: dark condition; all Gram-negative bacteria of Table 1, entries 31-47
Text: as §1

Staphylococcus aureus = assay: MIC, broth dilution; assay type: cell-based
Text: as §1

Gram-positive bacteria = assay: MIC, broth dilution; assay type: cell-based
Text: as §1

Mycobacterium spp. = assay: MIC, broth dilution; assay type: cell-based
Text: as §1

Enterococcus faecalis = assay: MIC, broth dilution; assay type: cell-based; conditions: drug-susceptible and drug-resistant incl. vancomycin-resistant strains; entries 17-21
Text: as §1

[4] = tested on: Gram-positive Bacillus spp.; assay: MIC, broth dilution; assay type: cell-based; conditions: illumination; entries 1-3 of Table 1
Text: as §1

Streptococcus salivarius = assay: MIC, broth dilution; conditions: entry 23
Procedure: (§6) We have reinvestigated the bactericidal activity of pharmaceutical-grade of RB against a battery of Gram-positive and -negative aerobic bacteria including Mycobacterium spp. and a Saccharomyces sp. under different light sources (fluorescence, LED, and sun light) and in a dark condition. Fluorescent light used was 17W (1,647 lumens, 63.8 cm^2) and LED was a 9.5 W (800 lumens, 28.3 cm^2), specifics about which are discussed hereinafter.
(§7) Minimum inhibitory concentrations (MICs) were determined by broth dilution microplate alamar blue assay or by OD measurement. All compounds were stored in DMSO or saline (1 mg/100 µL concentration). This concentration was used as the stock solution for all MIC studies. Each compound from stock solution was placed in the first well of a sterile 96 well plate and a serial dilution was conducted with the culturing broth (total volume of 10 µL). The bacterial suspension at log phase (190 µL) was added to each well (total volume of 200 µL), and was incubated for 24 h at 37° C.

[5] = tested on: B.subtilis, B.cereus, and S.aureus; assay: MIC, agar dilution; assay type: cell-based; conditions: fluorescent light; entries 1-4 in Table 2; read-out: MIC (growth inhibition), agar dilution
Text: as §2
We observed that under the illumination conditions the MIC values of RB determined by the agar dilution method are lower than those determined by the broth dilution method (Table 1).

[6] = tested on: biofilms of S.aureus 6508; assay: Anti-biofilm assay; assay type: cell-based, Staphylococcus aureus; conditions: for viable bacteria in biofilm: dark condition
Procedure: We applied linezolid as a positive control at very high concentration of 600 µg/mL (>100xMIC for the planktonic cells) in our biofilm assays.
The biofilms were generated on 12-well plates by incubating each bacterium for five days. The planktonic bacteria in the culture media were gently removed, and fresh media were placed. […] An aliquot of each culture was diluted (x10,000 or x100,000) on agar plates at 37° C. for 24 h. CFU/mL was counted.

[7] = tested on: air-exposed biofilms of S.aureus BAA-44™; assay: Air-exposed biofilms on agar plate; assay type: cell-based, Staphylococcus aureus; conditions: for CFU/mL (Dilution 5.8 × 10^11): treated at 0 and 30 min, 1 h, 17W fluorescent light, counted after 24 h at 37° C.
Procedure: The data of Table 3, below, summarize the effect of RB on air-exposed biofilms of a MRSA, Saureus BAA-44™, under fluorescent light (17 W, 1 h, 0.57 KJ/cm^2). Spraying RB (5.0 µg/mL or 10 µg/mL solution, 250 µL (twice)) and fluorescent light exposure (for 1 h) eradicated significant viable bacteria in the biofilms with a 4-log reduction (determined at a dilution of 5.8×10^9).
The bacteria (about 1.0x10^4) were spread on an agar plate and incubated in an oven at 37° C. for 2 days. The air-exposed biofilms on an agar plate were treated with PV-10. After 1 h under fluorescent light (0.57 KJ/cm^2), saline (2 mL) was added to the agar surface. The bacterial suspension ([…]) was taken into a sterile tube, and serial dilutions were performed. The diluted sample ([…]) was spread on agar plates and incubated at 37° C. for 24 h CFU/mL were counted.

S.aureus 6538™ = assay: Time-kill kinetic assay; conditions: in 1 minute; 4.6 × 10^8 CFU; fluorescent light
Procedure: as §3, §4, §5

[8] = tested on: biofilms of S.aureus 71080 (VRS8); assay: Anti-biofilm assay; assay type: cell-based, Staphylococcus aureus; conditions: fluorescent light
Procedure: Here, we examined efficacy of RB against biofilms of a drug-susceptible S.aureus 6508™, and drug-resistant S.aureus 71080 (VRS8) and E.faecium NR-32065 under the florescent light and dark conditions.
The biofilms were generated on 12-well plates by incubating each bacterium for five days. The planktonic bacteria in the culture media were gently removed, and fresh media were placed. […] An aliquot of each culture was diluted (x10,000 or x100,000) on agar plates at 37° C. for 24 h. CFU/mL was counted [47, 69].

Streptococcus pneumoniae = assay: MIC, broth dilution; conditions: entry 24
Procedure: as §6, §7

[9] = tested on: three E.coli, two Pseudomonas aeruginosa, two Klebsiella pneumoniae, and two Acinetobacter baumannii strains; assay: MIC, broth dilution; conditions: entries 31-39
Procedure: as §6, §7

[10] = tested on: Burkholderia, Salmonella, and Proteus spp.; assay: MIC, broth dilution; conditions: fluorescent or LED lights
Procedure: as §6, §7

[11] = at the therapeutic concentrations; cited from earlier work
Bacteroides fragilis = assay: MIC, broth dilution; conditions: anaerobic Gram-negative bacterium
Text: We have reinvestigated the bactericidal activity of pharmaceutical-grade of RB against a battery of Gram-positive and -negative aerobic bacteria including Mycobacterium spp. and a Saccharomyces sp. under different light sources (fluorescence, LED, and sun light) and in a dark condition. Fluorescent light used was 17W (1,647 lumens, 63.8 cm^2) and LED was a 9.5 W (800 lumens, 28.3 cm^2), specifics about which are discussed hereinafter. In the studies under sunlight through an architectural window, the 96-well plates were placed on the east side of the building (the BSL-2 lab on the 5th floor, College of Pharmacy, University of Tennessee Health Science Center, Memphis, TN, USA) and the growth inhibition studies were performed between 8 AM and 5 PM (on June 18th, 2021).
Minimum inhibitory concentrations (MICs) were determined by broth dilution microplate alamar blue assay or by OD measurement. All compounds were stored in DMSO or saline (1 mg/100 µL concentration). This concentration was used as the stock solution for all MIC studies. Each compound from stock solution was placed in the first well of a sterile 96 well plate and a serial dilution was conducted with the culturing broth (total volume of 10 µL). […] The absorbance of each well was also measured at 570 and 600 nm via UV-Vis.

S.aureus 71080 (VRS8) = assay: Time-kill kinetic assay; conditions: twice the RB MIC; fluorescent light
Procedure: as §3, §4, §5

[12] = tested on: Staphylococcus epidermidis; assay: MIC, broth dilution; conditions: aerobic condition; entry 16
Procedure: as §6, §7

## O=C([O-])c1c(Cl)c(Cl)c(Cl)c(Cl)c1-c1c2cc(I)c(=O)c(I)c-2oc2c(I)c([O-])c(I)cc12.[Na+].[Na+] [RB, 4,5,6,7-tetrachloro-2′,4′,5′,7′-tetraiodo-fluorescein]
S.cerevisiae [1]; dark condition
  concentration not killing the yeast: > 500 µg/mL
S.cerevisiae [1]; fluorescent light
  MBC (to kill >99% of the yeast): 400 µg/mL
B.cepacia UCB717; 2-times the MIC
  time required for a 5-log reduction: 40 minutes
B.cepacia UCB717; 4-times the MIC, in 5 minutes, 2.9 × 10^8 CFU
  log reduction of the bacteria: > 5 log
[2]; 200 µM, 1 h
  necrosis on the surface tissue: Some necrosis
[2]; 10 and 100 µM, 1 h exposure
  necrosis of the stratum corneum cells: did not cause necrosis
S.cerevisiae [3]
  IC50: 1.6 µg/mL
S.aureus BAA-44
  time to kill: ≤ 2 min
A S.aureus strain
  loss of viability: about 80%
Gram-negative bacteria
  MIC: > 100 µg/mL
Staphylococcus aureus; 7 methicillin-resistant S.aureus (MRSA) strains, fluorescent or LED light
  MIC (killing concentration): 0.78 to 3.1 µg/mL
Staphylococcus aureus; MIC standard strain, illumination, entry 4
  concentration required to kill >99% of bacteria: 1.6 µg/mL
Staphylococcus aureus; vancomycin-resistant S.aureus strains, either lighting condition
  MIC (killing concentration): below 1.0 µg/mL
Gram-positive bacteria; dark condition, all Gram-positive bacteria of entries 1-23
  MIC: 25 to 100 µg/mL
Gram-positive bacteria; under illumination conditions (fluorescent, LED), wide range of Gram-positive bacteria, entries 1-23 in Table 1
  MIC: 0.2 to 3.1 µg/mL
Mycobacterium spp.; dark conditions
  killing concentration (MIC): 25.0 to 50.0 mg/mL
Mycobacterium spp.; illuminated conditions, 5 Mycobacterium spp., entries 25-29
  MIC: 12.5 to 25 µg/mL
Mycobacterium spp.; illumination conditions
  killing concentration (MIC): 12.5 to 25.0 mg/mL
Enterococcus faecalis
  MIC (killing concentration): 0.39 to 0.78 µg/mL
[4]
  MIC (killing concentration): 0.39 to 0.78 µg/mL
Streptococcus salivarius
  susceptibility to RB: susceptible
[5]
  MIC: 0.01 to 0.1 µg/mL
[6]; 50.0 µg/mL (2xMIC under dark)
  viable bacteria in biofilm: significantly reduced the number of viable bacteria
[6]; 60.0 µg/mL (77×MIC), fluorescent light
  biofilm eradication, log reduction: > 5 log
[6]; 100 µg/mL, fluorescent light
  CFU counted in biofilm: No CFU were counted
[6]; 1,000 µg/mL
  viable bacteria in biofilm: No viable bacteria
[7]; first column, PV-10 5.0 µg/mL
  colonies counted (Dilution 5.8 × 10^11): 0 (0 colony)
  CFU/mL (Dilution 5.8 × 10^11): 0 (0 colony) CFU/mL
[7]; first column, PV-10 10 µg/mL
  colonies counted (Dilution 5.8 × 10^11): 0 (0 colony)
  CFU/mL (Dilution 5.8 × 10^11): 0 (0 colony) CFU/mL
[7]; second column, PV-10 5.0 µg/mL
  colonies counted (Dilution 5.8 × 10^11): 35 colonies
  CFU/mL (Dilution 5.8 × 10^11): 9.4 × 10^10 CFU/mL
[7]; second column, PV-10 10 µg/mL
  colonies counted (Dilution 5.8 × 10^11): 17 colonies
  CFU/mL (Dilution 5.8 × 10^11): 4.5 × 10^10 CFU/mL
[7]; spray 5.0 or 10 µg/mL solution, 250 µL twice, fluorescent light 1 h, dilution of 5.8×10^9
  log reduction of viable bacteria in air-exposed biofilms: 4 log
S.aureus 6538™
  log reduction of CFU: 6 log
[8]; 10.0 µg/mL
  biofilm, log reduction of viable bacteria: over 6 log
[8]; 30.0 µg/mL or higher
  CFU counted in biofilm: No CFU were counted
Streptococcus pneumoniae
  susceptibility to RB: showed resistance
[9]
  MIC: 50 µg/mL and > 100 µg/mL
[10]
  MIC (killing concentration): 3.13 to 12.5 µg/mL
[11]
  toxicological effects: does not have systemic toxicological effects, mutagenic potential, and female reproductive and development effects
Bacteroides fragilis
  concentration tolerated: ≥ 100 µg/mL
S.aureus 71080 (VRS8)
  time to kill: ≤ 2 min
[12]
  bactericidal activity: effectively killed
